One assay has as its system C. albicans ATCC10261. As to the kind of experiment: Checkerboard chemosensitisation to fluconazole. In kind it is cell-based. How it is done: (§1) (A) Checkerboard drug susceptibility assay of AD1002. This assay was conducted as described in Materials and methods in the presence of the indicated concentrations of fluconazole and KN20. (B) Disk drug susceptibility assay of AD1002. This assay was conducted, as described in Materials and methods for Example 4, in the absence or presence of 5 μg/ml fluconazole, with (1) KN0 (12 nanomole), (2) KN20 (12 nanomole) or (0) control amounts of DMSO applied to the disks. (C) Checkerboard drug susceptibility assay of ATCC 10261. This assay was conducted, as described in Material and methods for Example 4, in the presence of the indicated concentrations of fluconazole and KN20. D indicates cell death as measured by a failure to recover any colony forming units when samples from microtitre plate wells were cultured on solid YPD medium.
(§2) Checkerboard drug susceptibility assays were used to measure the chemosensitisation of cells to fluconazole by test compounds such as Pdr5p inhibitors. Fluconazole concentration in the CSM-URA medium was varied in one dimension (between 0 and 80 μg/ml) and the concentration of the test compound was varied in the second dimension (between 0 and 40 μM). Cell inocula, growth conditions and the optical determination of growth were identical to standard liquid MIC determinations. The assays were conducted in 6 by 6 well arrays centred in a 96 well microtitre plate using buffered CSM-URA medium at pH 7.0, with fluconazole and/or peptide included in each well at the indicated concentration.

Assay [1] relates to S. cerevisiae AD1002 (CaCdr1p). The assay can be described thus: Checkerboard chemosensitisation to fluconazole. The assay is classed as cell-based. On the procedure: as §1, §2
Assay [2] deals with S. cerevisiae AD1-8u^− hyper-expressing CDR1-1. As to the kind of experiment: MIC, CDR1 allele 1 hyper-expressed. In kind it is cell-based. To be noted: Saccharomyces cerevisiae; hyper-expression of CDR1-1 allele. How it is done:
(§3) The MICs of antifungal agents for S. cerevisiae cells were determined by a microdilution test based on the macrodilution reference method of the National Committee for Clinical Laboratory Standards. Cells (10 μl cell suspension, 2×10^5 cells/ml) were inoculated into 90 μl CSM-URA, buffered with 10 mM 2-(N-morpholino)ethanesulfonic acid (MES) and 18 mM N-2-hydroxyethylpiperazine-N′-2-ethanesulfonic acid (HEPES), pH 7.0 and containing 0.67% (w/v) yeast nitrogen base (YNB) in microtitre plate wells. For the uracil-requiring strain AD1-8u^− the medium was supplemented with 0.02% (w/v) uridine. The wells contained, in […], doubling dilutions of antifungal agents (final concentrations: fluconazole, 40-0.078 μg/ml; itraconazole and ketoconazole, 8-0.016 μg/ml). The microtitre plates were incubated at 30° C. for 48 h with shaking and then the growth of cells in individual wells (OD590) was measured with a microplate reader (EL 340, Bio-Tek, Winooski, Vt.). The MIC80 was the lowest concentration of drug that inhibited growth yield by at least 80% compared to a no-drug control.

Assay [3] deals with SfiI-containing construct expressing Pdr5p. The assay can be described thus: MIC, SfiI-containing Pdr5p construct. The assay is classed as cell-based, S. cerevisiae. To be noted: low Pdr5p expression. How it is done: as §3
In another assay the test system is Cdr1p ATPase. The assay can be described thus: Oligomycin sensitive ATPase/NTPase activity of AD1002 plasma membranes. In kind it is biochemical, C. albicans. To be noted: ratio of inhibitory concentrations Cdr1p/Pdr5p. On the procedure:
Membrane fractions were isolated from S. cerevisiae AD1002 (▪) or parental AD1-8u^− cells (●). ATPase assays were carried out at 30° C. for 30 min, as described in Materials and methods for Example 2. The oligomycin-sensitive activity was determined as the difference in ATPase activity in the presence and absence of 20 μM oligomycin. […] The results are the means (+/−SD) of four determinations carried out on two membrane preparations.
(B) Inhibition profile with KN20 on the oligomycin-sensitive Cdr1p ATPase activity of plasma membranes from AD1002 minus the oligomycin-sensitive ATPase activity of plasma membranes from the isogenic AD1-8u^− strain.
Yeast were grown in YEPD, pH 5.5 at 30° C. until they reached late-exponential phase of growth (OD600 nm=7), washed twice in ice-cold distilled water, and incubated on ice for 30 min to minimize glucose-stimulated Pma1p activity. Cells were resuspended in homogenising medium (50 mM Tris pH 7.5, 2 mM EDTA and 1 mM phenylmethylsulfonyl fluoride) and disrupted using a Braun Homogeniser. Cell debris and unbroken cells were removed by centrifuging at 2,000×g at 4° C. for 10 min. A crude membrane fraction was isolated from the cell-free supernatant by centrifuging at 30,000×g at 4° C. for 45 min. Plasma membranes were prepared by centrifugation of the supernatant obtained after selective precipitation of mitochondria at pH 5.2 as described previously (Goffeau, A. and Dufour, J. P., 1988). The plasma membranes were resuspended in 10 mM Tris pH 7.0, 0.5 mM EDTA and 20% [v/v] glycerol and stored at −80° C. Protein was determined using a micro-Bradford (Bio-Rad Laboratories, Hercules, Calif. [Bradford, M. M., 1976]) assay with gamma-globulin as standard. Nucleotide triphosphatase activity was measured by incubating the plasma membrane fractions (10 μg) at 30° C. in a final volume of 120 μl containing 6 mM NTP, 7 mM MgSO4 in 59 mM MES-Tris buffer pH 6.0-8.0. To eliminate possible contributions from nonspecific phosphatases, vacuolar, or mitochondrial ATPases, 0.2 mM ammonium molybdate, 50 mM KNO3 and 10 mM NaN3, respectively, were included in assays (Monk B C, et al, 1991). Other ATPase inhibitors (20 μM oligomycin, 20 μM aurovertin B or 100 μM vanadate were added to the reaction where indicated. After 30 min the reaction was stopped by adding 130 μl of a solution containing 1% (w/v) SDS, 0.6 M H2SO4, 1.2% (w/v) ammonium molybdate and 1.6% (w/v) ascorbic acid. Inorganic phosphate released from NTPs was measured at 750 nm after 10 min incubation at room temperature.

≈ marks a conversion by molar mass, not a printed value. Marks after values point to notes of the source that are not given here.

This is an account of results in patent publication US8728797B2, “Yeast membrane protein expression system and its application in drug screening” (priority 2001, dated 2014).

Turning to `OC(Cn1cncn1)(Cn1cncn1)c1ccc(F)cc1F` [fluconazole], the “Chemosensitising concentration FCZ” value with C. albicans ATCC10261 is 2 µg/mL; in assay [1] (AD1002 (CaCdr1p), with KN20), 10 µg/mL. In addition, the results for the MIC in assay [2] and in assay [3] were 400 µg/mL (≈ 1310 µM) and less than 40 mu.g/ml, respectively.

For the molecule “D-octapeptide NH2-Asn-Trp-Trp-Lys-Val-Arg-Arg-Arg-CONH2 with a single 4-methoxy-2,3,6-trimethylbenzenesulphonyl (Mtr) substituent on one tryptophan sidechain; Pdr5p inhibitor [KN20]”, the “Cdr1p ATPase inhibition concentration relative to Pdr5p ATPase” value in the assay on Cdr1p ATPase is listed as 2.7 fold. For the same molecule, the “Chemosensitising concentration KN20” value stood at 80 µM in the assay with C. albicans ATCC10261 (C. albicans ATCC10261) and 10 µM in assay [1] (AD1002 (CaCdr1p)). Besides, the “Fold-sensitisation by KN20 (For FCZ MIC)” value is on record as 64^a fold in the assay with C. albicans ATCC10261 (C. albicans ATCC10261, resistant tail eliminated) and 4 fold in assay [1] (AD1002 (CaCdr1p)). Also, the “growth of AD1002 with KN20 alone” value in assay [1] (10 μM KN20, without fluconazole, pH 7.0) was “completely resistant”; in assay [1] (20 μM peptide alone, 48 h) it was “did not affect overall growth”. Moreover, in assay [1] (10 μg/ml fluconazole plus 10 μM KN20), the “growth of AD1002 with fluconazole plus KN20” value was “completely abolished growth”.
